Measurements taken from patent publication US20220378706A1, “PHARMACEUTICAL COMPOSITION COMPRISING PDE9 INHIBITOR” (Eisai R&D Management Co., Ltd., priority 2017, published 2022).
Where two headings read alike, the source gives them in different places.

Experiment: Multiple ascending dose study: plasma pharmacokinetics
Format: in vivo
Details: human, po; for Tmax: read-out: tmax Median
Protocol: Four sequential cohorts of healthy participants (≥50 years and ≤85 years old) were treated with multiple ascending doses of Compound A up to the maximum tolerated dose (MTD). A total of 6 participants per cohort were randomized to Compound A. Proposed doses of Compound A were:
Participants received Compound A capsules, orally once daily (QD) on Days 1 to 14 after an overnight fast of at least 10 hours. Compound A was administered orally with 240 milliliter (mL) (8 fluid ounces) of water.
1) Maximum drug concentration (Cmax) [Time Frame: Day 1 and Day 14]
Blood samples were collected on Day 1 at predose and postdose 0.5 (30 minutes), 1, 1.5, 2, 3, 4, 5, 6, 8, 12, and 18 hours; Day 14 (at predose and postdose 0.5, 1, 1.5, 2, 3, 4, 5, 6, 8, 12, and 18 hours); and Day 15 (24 hours postdose from Day 14).
2) Mean time to reach maximum (peak) drug concentration (tmax) [Time Frame: Day 1 and Day 14]
4) Mean area under the concentration-time curve from zero time extrapolated to infinity (AUC(0-inf)) [Time Frame: Day 14]

COc1ncc(C)c(-c2ccc3c(c2)[nH]c(=O)c2cnn([C@H]4CCOC4)c23)c1C [Compound A, (S)-7-(2-methoxy-3,5-dimethylpyridin-4-yl)-1-(tetrahydrofuran-3-yl)-1H-pyrazolo[4,3-c]quin olin-4(5H)-one]
Cmax (50 mg, Part C, 50 mg oral, read-out: Cmax GM (% CV)): 594 ng/mL | Cmax (50 mg, Part C, 50 mg oral, read-out: Cmax Mean (SD)): 608 ng/mL | Cmax (50 mg, Part C, 50 mg oral, read-out: Cmax Median): 590 ng/mL | Tmax (50 mg, Part C, 50 mg oral): 1.98 h | AUC(0-t) (100 mg, Day 1, 100 mg QD oral, read-out: AUC(0-24 h) GM (% CV)): 5230 ng·h/mL | AUC(0-t) (100 mg, Day 1, 100 mg QD oral, read-out: AUC(0-24 h) Mean (SD)): 5250 ng·h/mL | AUC(0-t) (100 mg, Day 1, 100 mg QD oral, read-out: AUC(0-24 h) Median): 5180 ng·h/mL | Cmax (100 mg, Day 1, 100 mg QD oral, read-out: Cmax GM (% CV)): 366 ng/mL | Cmax (100 mg, Day 1, 100 mg QD oral, read-out: Cmax Mean (SD)): 373 ng/mL | Cmax (100 mg, Day 1, 100 mg QD oral, read-out: Cmax Median): 344 ng/mL | Tmax (100 mg, Day 1, 100 mg QD oral): 2.53 h | AUC(0-t) (100 mg, Day 14, 100 mg QD oral, read-out: AUC(0-24 h) GM (% CV)): 16600 ng·h/mL | AUC(0-t) (100 mg, Day 14, 100 mg QD oral, read-out: AUC(0-24 h) Mean (SD)): 16900 ng·h/mL | AUC(0-t) (100 mg, Day 14, 100 mg QD oral, read-out: AUC(0-24 h) Median): 16800 ng·h/mL | AUC(0-inf) (100 mg, Day 14, 100 mg QD oral, read-out: AUC(0-inf) GM (% CV)): 56400 ng·h/mL | AUC(0-inf) (100 mg, Day 14, 100 mg QD oral, read-out: AUC(0-inf) Mean (SD)): 58600 ng·h/mL | AUC(0-inf) (100 mg, Day 14, 100 mg QD oral, read-out: AUC(0-inf) Median): 62700 ng·h/mL | Cmax (100 mg, Day 14, 100 mg QD oral, read-out: Cmax GM (% CV)): 1010 ng/mL | Cmax (100 mg, Day 14, 100 mg QD oral, read-out: Cmax Mean (SD)): 1020 ng/mL | Cmax (100 mg, Day 14, 100 mg QD oral, read-out: Cmax Median): 1030 ng/mL | Tmax (100 mg, Day 14, 100 mg QD oral): 2.56 h | AUC(0-t) (200 mg, Day 1, 200 mg QD oral, read-out: AUC(0-24 h) GM (% CV)): 8650 ng·h/mL | AUC(0-t) (200 mg, Day 1, 200 mg QD oral, read-out: AUC(0-24 h) Mean (SD)): 9050 ng·h/mL | AUC(0-t) (200 mg, Day 1, 200 mg QD oral, read-out: AUC(0-24 h) Median): 10400 ng·h/mL | Cmax (200 mg, Day 1, 200 mg QD oral, read-out: Cmax GM (% CV)): 687 ng/mL | Cmax (200 mg, Day 1, 200 mg QD oral, read-out: Cmax Mean (SD)): 740 ng/mL | Cmax (200 mg, Day 1, 200 mg QD oral, read-out: Cmax Median): 813 ng/mL | Tmax (200 mg, Day 1, 200 mg QD oral): 2.01 h | AUC(0-t) (200 mg, Day 14, 200 mg QD oral, read-out: AUC(0-24 h) GM (% CV)): 22800 ng·h/mL | AUC(0-t) (200 mg, Day 14, 200 mg QD oral, read-out: AUC(0-24 h) Mean (SD)): 23100 ng·h/mL | AUC(0-t) (200 mg, Day 14, 200 mg QD oral, read-out: AUC(0-24 h) Median): 21300 ng·h/mL | AUC(0-inf) (200 mg, Day 14, 200 mg QD oral, read-out: AUC(0-inf) GM (% CV)): 70500 ng·h/mL | AUC(0-inf) (200 mg, Day 14, 200 mg QD oral, read-out: AUC(0-inf) Mean (SD)): 72200 ng·h/mL | AUC(0-inf) (200 mg, Day 14, 200 mg QD oral, read-out: AUC(0-inf) Median): 61900 ng·h/mL | Cmax (200 mg, Day 14, 200 mg QD oral, read-out: Cmax GM (% CV)): 1680 ng/mL | Cmax (200 mg, Day 14, 200 mg QD oral, read-out: Cmax Mean (SD)): 1730 ng/mL | Cmax (200 mg, Day 14, 200 mg QD oral, read-out: Cmax Median): 1950 ng/mL | Tmax (200 mg, Day 14, 200 mg QD oral): 2 h | AUC(0-t) (400 mg, Day 1, 400 mg QD oral, Japanese, read-out: AUC(0-24 h) GM (% CV)): 18300 ng·h/mL | AUC(0-t) (400 mg, Day 1, 400 mg QD oral, Japanese, read-out: AUC(0-24 h) Mean (SD)): 18400 ng·h/mL | AUC(0-t) (400 mg, Day 1, 400 mg QD oral, Japanese, read-out: AUC(0-24 h) Median): 18900 ng·h/mL | Cmax (400 mg, Day 1, 400 mg QD oral, Japanese, read-out: Cmax GM (% CV)): 1510 ng/mL | Cmax (400 mg, Day 1, 400 mg QD oral, Japanese, read-out: Cmax Mean (SD)): 1520 ng/mL | Cmax (400 mg, Day 1, 400 mg QD oral, Japanese, read-out: Cmax Median): 1510 ng/mL | Tmax (400 mg, Day 1, 400 mg QD oral, Japanese): 2 h | AUC(0-t) (400 mg, Day 1, 400 mg QD oral, Non-Japanese, read-out: AUC(0-24 h) GM (% CV)): 14500 ng·h/mL | AUC(0-t) (400 mg, Day 1, 400 mg QD oral, Non-Japanese, read-out: AUC(0-24 h) Mean (SD)): 14600 ng·h/mL | AUC(0-t) (400 mg, Day 1, 400 mg QD oral, Non-Japanese, read-out: AUC(0-24 h) Median): 14700 ng·h/mL | Cmax (400 mg, Day 1, 400 mg QD oral, Non-Japanese, read-out: Cmax GM (% CV)): 1100 ng/mL | Cmax (400 mg, Day 1, 400 mg QD oral, Non-Japanese, read-out: Cmax Mean (SD)): 1100 ng/mL | Cmax (400 mg, Day 1, 400 mg QD oral, Non-Japanese, read-out: Cmax Median): 1140 ng/mL | Tmax (400 mg, Day 1, 400 mg QD oral, Non-Japanese): 1.76 h | AUC(0-t) (400 mg, Day 14, 400 mg QD oral, Japanese, read-out: AUC(0-24 h) GM (% CV)): 42700 ng·h/mL | AUC(0-t) (400 mg, Day 14, 400 mg QD oral, Japanese, read-out: AUC(0-24 h) Mean (SD)): 42900 ng·h/mL | AUC(0-t) (400 mg, Day 14, 400 mg QD oral, Japanese, read-out: AUC(0-24 h) Median): 43200 ng·h/mL | AUC(0-inf) (400 mg, Day 14, 400 mg QD oral, Japanese, read-out: AUC(0-inf) GM (% CV)): 122000 ng·h/mL | AUC(0-inf) (400 mg, Day 14, 400 mg QD oral, Japanese, read-out: AUC(0-inf) Mean (SD)): 125000 ng·h/mL | AUC(0-inf) (400 mg, Day 14, 400 mg QD oral, Japanese, read-out: AUC(0-inf) Median): 120000 ng·h/mL | Cmax (400 mg, Day 14, 400 mg QD oral, Japanese, read-out: Cmax GM (% CV)): 3080 ng/mL | Cmax (400 mg, Day 14, 400 mg QD oral, Japanese, read-out: Cmax Mean (SD)): 3100 ng/mL | Cmax (400 mg, Day 14, 400 mg QD oral, Japanese, read-out: Cmax Median): 3250 ng/mL | Tmax (400 mg, Day 14, 400 mg QD oral, Japanese): 1.5 h | AUC(0-t) (400 mg, Day 14, 400 mg QD oral, Non-Japanese, read-out: AUC(0-24 h) GM (% CV)): 39200 ng·h/mL | AUC(0-t) (400 mg, Day 14, 400 mg QD oral, Non-Japanese, read-out: AUC(0-24 h) Mean (SD)): 40300 ng·h/mL | AUC(0-t) (400 mg, Day 14, 400 mg QD oral, Non-Japanese, read-out: AUC(0-24 h) Median): 43900 ng·h/mL | AUC(0-inf) (400 mg, Day 14, 400 mg QD oral, Non-Japanese, read-out: AUC(0-inf) GM (% CV)): 121000 ng·h/mL | AUC(0-inf) (400 mg, Day 14, 400 mg QD oral, Non-Japanese, read-out: AUC(0-inf) Mean (SD)): 135000 ng·h/mL | AUC(0-inf) (400 mg, Day 14, 400 mg QD oral, Non-Japanese, read-out: AUC(0-inf) Median): 141000 ng·h/mL | Cmax (400 mg, Day 14, 400 mg QD oral, Non-Japanese, read-out: Cmax GM (% CV)): 2740 ng/mL | Cmax (400 mg, Day 14, 400 mg QD oral, Non-Japanese, read-out: Cmax Mean (SD)): 2820 ng/mL | Cmax (400 mg, Day 14, 400 mg QD oral, Non-Japanese, read-out: Cmax Median): 3050 ng/mL | Tmax (400 mg, Day 14, 400 mg QD oral, Non-Japanese): 1.79 h
